From patent US20230000870A1, “METHODS OF TREATING CANCER IN BIOMARKER-IDENTIFIED PATIENTS WITH INHIBITORS OF CYCLIN-DEPENDENT KINASE 7 (CDK7)” (Syros Pharmaceuticals, Inc., priority 2019, published 2023)

Tests used:
[1] = target: CDK7/Cyclin H/MAT1 complex (Homo sapiens, UniProt P50613); experiment: CDK7 kinase inhibition assay (Caliper/LabChip EZ Reader); type: biochemical; conditions: CDK7/Cyclin H/MAT1 6 nM, ATP 2 mM, 35 min at 27° C.
Method in brief: (§1)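 Incubation times were set for ~20% (±5%) peptide phosphorylation by uninhibited enzyme: CDK7 35 min, CDK2 35 min (0.5 nM complex, 2 μM 5-FAM-CDK7tide, 2 mM MgCl2), CDK12 3 hr (50 nM, 2 μM 5-FAM-CDK9tide, 2 mM MgCl2), CDK9 15 min (8 nM, 2 μM 5-FAM-CDK9tide, 10 mM MgCl2). Read-out on LabChip EZ Reader, 27° C.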

CDK9/Cyclin T1 complex = CDK9/Cyclin T1 complex (Homo sapiens, UniProt P50750); experiment: CDK9 kinase inhibition assay (Caliper/LabChip EZ Reader); type: biochemical; conditions: CDK9/Cyclin T1 8 nM, ATP 2 mM, 15 min at 27° C.
Method in brief: as §1

CDK2/Cyclin E1 complex = CDK2/Cyclin E1 complex (Homo sapiens, UniProt P24941); experiment: CDK2 kinase inhibition assay (Caliper/LabChip EZ Reader); type: biochemical; conditions: CDK2/Cyclin E1 0.5 nM, ATP 2 mM, 35 min at 27° C.
Method in brief: as §1

HCC70 cells = experiment: Inhibition of proliferation of HCC70 cells (CyQUANT Direct, 72 hour); type: cell-based, human; conditions: read-out: Inhibition of Proliferation of HCC70 Cells (calculated IC50)
Method: HCC70 cells: HCC70 cells are a cell line derived from human triple negative breast cancer. Representative compounds of the invention were tested at different concentrations (from 4 μM to […]; 0.5 log serial dilutions) for their ability to inhibit the proliferation of HCC70 cells. Known CDK inhibitors dinaciclib or N-((1S,3R)-3-((5-chloro-4-(1H-indol-3-yl) pyrimidin-2-yl)amino)cyclohexyl)-5-((E)-4-(dimethylamino)but-2-enamido)picolinamide and triptolide were used as positive controls. Cells were grown in ATCC-formulated RPMI-1640 Medium (ATCC 30-2001)+10% FBS. The cells were cultured at 37° C. in a humidified chamber in the presence of 5% CO2. Proliferation assays were conducted over a 72 hour time period. CyQUANT® Direct Cell Proliferation Assay (Life Technologies, Chicago, Ill. USA) was used to assess the anti-proliferative effects of the compounds following manufacturer's directions and utilizing the reagents supplied with the CyQUANT® Direct Cell kit.

[2] = target: T1, CDK12 (aa686-1082)/Cyclin K complex (Homo sapiens, UniProt Q9NYV4); experiment: CDK12 kinase inhibition assay (Caliper/LabChip EZ Reader); type: biochemical; conditions: CDK12 (aa686-1082)/Cyclin K 50 nM, ATP 2 mM, 3 hr at 27° C.
T1 construct: CDK12 (aa686-1082)/Cyclin K complex
Method in brief: as §1

T1 sequence (Q9NYV4 686-1082): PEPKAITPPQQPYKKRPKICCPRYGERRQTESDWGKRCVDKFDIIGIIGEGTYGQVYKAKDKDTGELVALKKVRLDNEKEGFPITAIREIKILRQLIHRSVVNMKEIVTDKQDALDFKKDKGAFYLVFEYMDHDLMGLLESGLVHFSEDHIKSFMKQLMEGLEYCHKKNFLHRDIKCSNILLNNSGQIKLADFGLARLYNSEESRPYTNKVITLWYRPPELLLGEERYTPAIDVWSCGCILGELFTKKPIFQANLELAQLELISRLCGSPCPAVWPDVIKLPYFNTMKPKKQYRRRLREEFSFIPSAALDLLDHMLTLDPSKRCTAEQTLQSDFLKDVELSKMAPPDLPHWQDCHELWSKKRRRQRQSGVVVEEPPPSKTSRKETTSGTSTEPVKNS
T1 sequence (O75909 whole entry partner, the tested form may be a part): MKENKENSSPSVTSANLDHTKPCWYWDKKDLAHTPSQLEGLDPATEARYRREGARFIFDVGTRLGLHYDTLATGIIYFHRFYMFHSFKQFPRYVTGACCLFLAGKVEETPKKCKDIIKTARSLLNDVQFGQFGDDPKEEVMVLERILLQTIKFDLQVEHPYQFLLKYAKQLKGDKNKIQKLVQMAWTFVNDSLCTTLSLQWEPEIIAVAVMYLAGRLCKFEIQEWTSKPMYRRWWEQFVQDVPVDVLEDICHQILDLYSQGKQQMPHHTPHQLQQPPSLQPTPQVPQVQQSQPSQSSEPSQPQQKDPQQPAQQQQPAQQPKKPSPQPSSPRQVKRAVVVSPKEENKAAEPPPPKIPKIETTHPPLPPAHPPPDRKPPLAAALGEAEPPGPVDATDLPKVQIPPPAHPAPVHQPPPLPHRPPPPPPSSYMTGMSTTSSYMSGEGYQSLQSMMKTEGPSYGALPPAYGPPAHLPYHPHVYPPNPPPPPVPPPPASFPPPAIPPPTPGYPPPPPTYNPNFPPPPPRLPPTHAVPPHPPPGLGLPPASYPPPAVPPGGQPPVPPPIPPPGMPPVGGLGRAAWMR
Chain of CDK7/Cyclin H/MAT1 complex (P50613 whole entry): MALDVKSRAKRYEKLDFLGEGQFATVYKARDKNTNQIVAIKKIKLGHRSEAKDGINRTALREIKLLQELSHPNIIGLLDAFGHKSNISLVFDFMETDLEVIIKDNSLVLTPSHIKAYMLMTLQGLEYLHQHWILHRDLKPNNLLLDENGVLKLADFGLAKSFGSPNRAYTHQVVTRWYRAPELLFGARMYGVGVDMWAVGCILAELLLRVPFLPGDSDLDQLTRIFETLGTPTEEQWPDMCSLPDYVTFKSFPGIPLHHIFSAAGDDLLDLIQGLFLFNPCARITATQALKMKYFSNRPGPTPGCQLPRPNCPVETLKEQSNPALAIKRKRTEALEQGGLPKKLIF
Chain of CDK7/Cyclin H/MAT1 complex (P51946 whole entry partner): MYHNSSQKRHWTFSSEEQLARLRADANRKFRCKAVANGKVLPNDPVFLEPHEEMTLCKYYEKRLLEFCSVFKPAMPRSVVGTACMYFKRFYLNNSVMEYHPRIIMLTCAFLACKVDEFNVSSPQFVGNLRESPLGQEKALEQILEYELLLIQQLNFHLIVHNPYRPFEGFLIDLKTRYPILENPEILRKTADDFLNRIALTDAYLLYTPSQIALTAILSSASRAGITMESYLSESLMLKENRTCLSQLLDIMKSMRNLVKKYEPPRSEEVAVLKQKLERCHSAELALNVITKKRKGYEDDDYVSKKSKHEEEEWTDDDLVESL
Chain of CDK7/Cyclin H/MAT1 complex (P51948 whole entry partner): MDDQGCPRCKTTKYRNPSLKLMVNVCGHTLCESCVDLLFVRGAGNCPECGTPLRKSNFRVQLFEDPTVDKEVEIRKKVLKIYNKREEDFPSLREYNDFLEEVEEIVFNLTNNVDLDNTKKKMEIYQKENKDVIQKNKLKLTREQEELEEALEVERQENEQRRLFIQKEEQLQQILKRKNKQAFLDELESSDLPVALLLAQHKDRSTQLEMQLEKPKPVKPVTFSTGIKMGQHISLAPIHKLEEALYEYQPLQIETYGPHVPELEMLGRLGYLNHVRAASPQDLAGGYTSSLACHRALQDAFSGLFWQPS
Chain of CDK9/Cyclin T1 complex (P50750 whole entry): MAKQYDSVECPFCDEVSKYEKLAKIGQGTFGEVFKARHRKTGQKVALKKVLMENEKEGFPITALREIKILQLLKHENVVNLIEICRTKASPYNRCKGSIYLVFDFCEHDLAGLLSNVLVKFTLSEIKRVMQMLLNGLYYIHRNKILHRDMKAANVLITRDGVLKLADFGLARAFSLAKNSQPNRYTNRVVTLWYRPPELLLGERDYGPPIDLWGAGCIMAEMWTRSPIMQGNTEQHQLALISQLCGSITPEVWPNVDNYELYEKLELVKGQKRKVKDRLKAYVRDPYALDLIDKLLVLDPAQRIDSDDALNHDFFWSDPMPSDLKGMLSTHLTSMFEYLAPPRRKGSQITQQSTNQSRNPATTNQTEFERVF
Chain of CDK9/Cyclin T1 complex (O60563 whole entry partner): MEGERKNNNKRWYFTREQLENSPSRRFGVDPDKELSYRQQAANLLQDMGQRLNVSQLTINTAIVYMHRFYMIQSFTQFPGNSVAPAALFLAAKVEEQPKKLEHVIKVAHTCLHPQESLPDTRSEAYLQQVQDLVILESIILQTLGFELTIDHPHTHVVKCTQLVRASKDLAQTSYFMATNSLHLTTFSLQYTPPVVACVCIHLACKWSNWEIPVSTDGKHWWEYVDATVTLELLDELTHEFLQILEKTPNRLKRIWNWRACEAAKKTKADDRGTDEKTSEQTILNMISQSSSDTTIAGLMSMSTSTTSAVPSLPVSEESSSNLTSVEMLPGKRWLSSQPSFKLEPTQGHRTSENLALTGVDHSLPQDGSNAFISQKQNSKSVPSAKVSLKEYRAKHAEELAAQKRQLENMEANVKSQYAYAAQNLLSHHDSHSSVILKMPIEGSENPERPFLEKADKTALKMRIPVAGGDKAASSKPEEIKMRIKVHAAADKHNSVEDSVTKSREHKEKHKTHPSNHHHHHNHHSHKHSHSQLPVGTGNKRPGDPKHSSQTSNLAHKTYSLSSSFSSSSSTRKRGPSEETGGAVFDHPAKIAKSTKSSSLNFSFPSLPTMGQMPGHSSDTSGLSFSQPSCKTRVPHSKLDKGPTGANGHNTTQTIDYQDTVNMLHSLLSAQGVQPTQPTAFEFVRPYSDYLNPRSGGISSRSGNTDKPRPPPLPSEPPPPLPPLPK

Row | SMILES | IC50 [1] [nM] | IC50 (CDK9/Cyclin T1 complex) [nM] | IC50 (CDK2/Cyclin E1 complex) [nM] | IC50 (HCC70 cells) [nM] | IC50 [2] [nM]
1 | FC(F)(F)c1cnc(NC2CCCNC2)nc1-c1c[nH]c2cc(-c3cnccn3)ccc12 (centres unmarked) [Compound 328] | < 20 | 200 to 5000 | 200 to 5000 | < 100 | 200 to 5000
2 | Cc1noc(C)c1-c1ccc2c(-c3nc(N[C@H]4CCCNC4)ncc3C(F)(F)F)c[nH]c2c1 [Compound 330] | < 20 | 200 to 5000 | 200 to 5000 | < 100 | 200 to 5000
3 | FC(F)(F)c1cnc(N[C@H]2CCCNC2)nc1-c1c[nH]c2cc(-c3nccs3)ccc12 [Compound 332] | < 20 | 200 to 5000 | 200 to 5000 | < 100 | 200 to 5000
4 | O=c1[nH]cc(-c2ccc3c(-c4nc(NC5CCCNC5)ncc4C(F)(F)F)c[nH]c3c2)c(=O)[nH]1 (centres unmarked) [Compound 333] | < 20 | ≥ 5000 | ≥ 5000 | 1000 to 5000 | 200 to 5000
5 | O=C1CCc2ccc(-c3ccc4c(-c5nc(NC6CCCNC6)ncc5C(F)(F)F)c[nH]c4c3)cc2N1 (centres unmarked) [Compound 334] | 20 to 200 | 200 to 5000 | 200 to 5000 | 100 to 1000 | 200 to 5000
6 | Cc1ccncc1-c1ccc2c(-c3nc(NC4CCCNC4)ncc3C(F)(F)F)c[nH]c2c1 (centres unmarked) [Compound 336] | < 20 | 200 to 5000 | 200 to 5000 | < 100 | 200 to 5000
7 | CC(=O)NCc1cccc(-c2ccc3c(-c4nc(NC5CCCNC5)ncc4C(F)(F)F)c[nH]c3c2)c1 (centres unmarked) [Compound 338] | 20 to 200 | 200 to 5000 | 200 to 5000 | 100 to 1000 | 200 to 5000
8 | FC(F)(F)c1cnc(NC2CCCNC2)nc1-c1c[nH]c2cc(-c3ccnc4ccccc34)ccc12 (centres unmarked) [Compound 339] | 20 to 200 | ≥ 5000 | ≥ 5000 | 1000 to 5000 | 200 to 5000
9 | O=C(c1cccc(-c2ccc3c(-c4nc(NC5CCCNC5)ncc4C(F)(F)F)c[nH]c3c2)c1)N1CCCC1 (centres unmarked) [Compound 340] | 20 to 200 | 200 to 5000 | 200 to 5000 | 1000 to 5000 | 200 to 5000
10 | FC(F)(F)c1cnc(N[C@H]2CCCNC2)nc1-c1c[nH]c2cc(-c3cccc(Oc4ccccc4)c3)ccc12 [Compound 341] | 200 to 5000 | ≥ 5000 | ≥ 5000 | 1000 to 5000 | ≥ 5000
11 | FC(F)(F)c1cnc(NC2CCCNC2)nc1-c1c[nH]c2cc(-c3ccc4c(c3)OCCO4)ccc12 (centres unmarked) [Compound 342] | 20 to 200 | ≥ 5000 | ≥ 5000 | 1000 to 5000 | 200 to 5000
12 | FC(F)(F)c1cnc(N[C@H]2CCCNC2)nc1-c1c[nH]c2cc(-c3ccc4ncsc4c3)ccc12 [Compound 343] | 20 to 200 | 200 to 5000 | 200 to 5000 | 100 to 1000 | 200 to 5000
13 | FC(F)(F)c1cnc(N[C@H]2CCCNC2)nc1-c1c[nH]c2cc(-c3cccc4cnccc34)ccc12 [Compound 344] | 20 to 200 | ≥ 5000 | 200 to 5000 | 100 to 1000 | 200 to 5000
14 | Fc1cccc(-c2ccc3c(-c4nc(NC5CCCNC5)ncc4C(F)(F)F)c[nH]c3c2)c1 (centres unmarked) [Compound 345] | 200 to 5000 | ≥ 5000 | ≥ 5000 | 1000 to 5000 | ≥ 5000
15 | CC(C)S(=O)(=O)c1ccc2c(-c3nc(NC4CCCNC4)ncc3C(F)(F)F)c[nH]c2c1 (centres unmarked) [Compound 346] | 20 to 200 | 200 to 5000 | 200 to 5000 | 100 to 1000 | 200 to 5000
16 | O=S1(=O)CCn2cc(-c3nc(N[C@H]4CCCNC4)ncc3C(F)(F)F)c3cccc1c32 [Compound 348] | 20 to 200 | ≥ 5000 | ≥ 5000 | 100 to 1000 | ≥ 5000

Row | SMILES | IC50 [1] [nM] | IC50 (CDK9/Cyclin T1 complex) [nM] | IC50 (CDK2/Cyclin E1 complex) [nM] | IC50 (HCC70 cells) [nM] | IC50 [2] [nM]
17 | O=C(c1ccc2c(-c3nc(NC4CCCNC4)ncc3C(F)(F)F)c[nH]c2c1)N1CC(O)C(F)(F)C1 (centres unmarked) [Compound 349] | < 20 | 200 to 5000 | 200 to 5000 | 100 to 1000 | 200 to 5000
18 | CC1(C)CCC(Nc2ncc(C(F)(F)F)c(-c3c[nH]c4cc(C#N)ccc34)n2)CN1 (centres unmarked) [Compound 350] | 20 to 200 | ≥ 5000 | ≥ 5000 | 100 to 1000 | 200 to 5000
19 | N#Cc1ccc2c(-c3nc(N[C@@H]4CNCC[C@H]4F)ncc3C(F)(F)F)c[nH]c2c1 [Compound 351] | < 20 | 200 to 5000 | 200 to 5000 | < 100 | 200 to 5000
20 | CC(C)(C)OC(=O)N1CCC[C@H](Nc2ncc(C(F)(F)F)c(-c3c[nH]c4cc(P(C)(C)=O)ccc34)n2)C1 [Compound 352] | ≥ 5000 | ≥ 5000 | ≥ 5000 | 1000 to 5000 | ≥ 5000
21 | CP(C)(=O)c1cccc2c(-c3nc(NC4CCCNC4)ncc3C(F)(F)F)c[nH]c12 (centres unmarked) [Compound 353] | < 20 | ≥ 5000 | 200 to 5000 | < 100 | 200 to 5000
22 | CP(C)(=O)c1ccc2c(-c3nc(NC4CCCNC4)ncc3C(F)(F)F)c[nH]c2c1 (centres unmarked) [Compound 354] | 20 to 200 | ≥ 5000 | ≥ 5000 | 1000 to 5000 | 200 to 5000
23 | N#Cc1ccc2c(-c3nc(NC4CNCCC4O)ncc3C(F)(F)F)c[nH]c2c1 (centres unmarked) [Compound 355] | 20 to 200 | ≥ 5000 | ≥ 5000 | 100 to 1000 | 200 to 5000
24 | CCc1cnc(NC2CCCNC2)nc1-c1c[nH]c2c(S(=O)(=O)C(C)C)cccc12 (centres unmarked) [Compound 356] | 20 to 200 | ≥ 5000 | ≥ 5000 | 100 to 1000 | ≥ 5000
25 | CN(C)S(=O)(=O)c1ccc2c(-c3nc(NC4CCCNC4)ncc3C(F)(F)F)c[nH]c2c1 (centres unmarked) [Compound 357] | < 20 | 200 to 5000 | 200 to 5000 | 1000 to 5000 | 200 to 5000
26 | CC(=O)c1ccc2c(-c3nc(N[C@H]4CCCNC4)ncc3C(F)(F)F)c[nH]c2c1 [Compound 359] | < 20 | 200 to 5000 | 200 to 5000 | < 100 | 200 to 5000
27 | CCc1cnc(N[C@H]2CCCNC2)nc1-c1c[nH]c2c(F)c(C#N)ccc12 [Compound 360] | 20 to 200 | ≥ 5000 | ≥ 5000 | 1000 to 5000 | ≥ 5000
28 | N#Cc1ccc2c(-c3nc(N[C@H]4CCCNC4)ncc3SC(F)F)c[nH]c2c1 [Compound 361] | 20 to 200 | 200 to 5000 | ≥ 5000 | 100 to 1000 | 200 to 5000
29 | CN1CCC[C@H](Nc2ncc(C(F)(F)F)c(-c3c[nH]c4cc(S(C)(=O)=O)ccc34)n2)C1 [Compound 364] | 20 to 200 | ≥ 5000 | ≥ 5000 | 1000 to 5000 | ≥ 5000
30 | O=S(=O)(CF)c1ccc2c(-c3nc(NC4CCCNC4)ncc3C(F)(F)F)c[nH]c2c1 (centres unmarked) [Compound 365] | < 20 | 200 to 5000 | 200 to 5000 | 100 to 1000 | 200 to 5000
31 | CC1(O)CCN(S(=O)(=O)c2ccc3c(-c4nc(NC5CCCNC5)ncc4C(F)(F)F)c[nH]c3c2)C1 (centres unmarked) [Compound 366] | 20 to 200 | 200 to 5000 | 200 to 5000 | 1000 to 5000 | 200 to 5000
